Measured values published in patent US11787785B2 (NOVARTIS AG, priority 2021, dated 2023).

Molecular target: T1, WIZ protein (HiBit-WIZ fusion protein) (Homo sapiens, UniProt O95785+Q96SW2)
T1 construct: expressed in transfected cells
Experiment: Quantification of WIZ protein levels in HiBit tag fusion protein assay (WIZ HiBit assay in 293T cells)
Assay type: cell-based
Parameters: remaining activity / Dmax: dose or concentration left out as unconfirmed
Details: for Dmax at 25 µM: 100 − Amax; for Dmax at 25 µM / remaining activity at 25 µM: 293T cells; for remaining activity at 25 µM: DMSO-normalized, curve-fitted percentage of WIZ-HiBit remaining at 25 uM; for DC50: WIZ HiBit assay in 293T cells, 10-point, 5-fold dose response, highest concentration 25 μM, about 18 hours, read-out: WIZ AC50
Outline: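 HiBit-tagged WIZ (N-terminal tag, HSVTK promoter) stably expressed single-copy in 293T cells; 10-point 1:5 compound series, top 25 μM, ~18 h at 37 °C. Lytic HiBit/LgBit luminescence read; Amax = curve-fitted % WIZ-HiBit remaining at 25 μM, DMSO normalized to 100%.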

[1] = HEK-293T, read-out: % degradation of WIZ (100 − Amax)

T1 sequence (O95785 whole entry, the tested form may be a part): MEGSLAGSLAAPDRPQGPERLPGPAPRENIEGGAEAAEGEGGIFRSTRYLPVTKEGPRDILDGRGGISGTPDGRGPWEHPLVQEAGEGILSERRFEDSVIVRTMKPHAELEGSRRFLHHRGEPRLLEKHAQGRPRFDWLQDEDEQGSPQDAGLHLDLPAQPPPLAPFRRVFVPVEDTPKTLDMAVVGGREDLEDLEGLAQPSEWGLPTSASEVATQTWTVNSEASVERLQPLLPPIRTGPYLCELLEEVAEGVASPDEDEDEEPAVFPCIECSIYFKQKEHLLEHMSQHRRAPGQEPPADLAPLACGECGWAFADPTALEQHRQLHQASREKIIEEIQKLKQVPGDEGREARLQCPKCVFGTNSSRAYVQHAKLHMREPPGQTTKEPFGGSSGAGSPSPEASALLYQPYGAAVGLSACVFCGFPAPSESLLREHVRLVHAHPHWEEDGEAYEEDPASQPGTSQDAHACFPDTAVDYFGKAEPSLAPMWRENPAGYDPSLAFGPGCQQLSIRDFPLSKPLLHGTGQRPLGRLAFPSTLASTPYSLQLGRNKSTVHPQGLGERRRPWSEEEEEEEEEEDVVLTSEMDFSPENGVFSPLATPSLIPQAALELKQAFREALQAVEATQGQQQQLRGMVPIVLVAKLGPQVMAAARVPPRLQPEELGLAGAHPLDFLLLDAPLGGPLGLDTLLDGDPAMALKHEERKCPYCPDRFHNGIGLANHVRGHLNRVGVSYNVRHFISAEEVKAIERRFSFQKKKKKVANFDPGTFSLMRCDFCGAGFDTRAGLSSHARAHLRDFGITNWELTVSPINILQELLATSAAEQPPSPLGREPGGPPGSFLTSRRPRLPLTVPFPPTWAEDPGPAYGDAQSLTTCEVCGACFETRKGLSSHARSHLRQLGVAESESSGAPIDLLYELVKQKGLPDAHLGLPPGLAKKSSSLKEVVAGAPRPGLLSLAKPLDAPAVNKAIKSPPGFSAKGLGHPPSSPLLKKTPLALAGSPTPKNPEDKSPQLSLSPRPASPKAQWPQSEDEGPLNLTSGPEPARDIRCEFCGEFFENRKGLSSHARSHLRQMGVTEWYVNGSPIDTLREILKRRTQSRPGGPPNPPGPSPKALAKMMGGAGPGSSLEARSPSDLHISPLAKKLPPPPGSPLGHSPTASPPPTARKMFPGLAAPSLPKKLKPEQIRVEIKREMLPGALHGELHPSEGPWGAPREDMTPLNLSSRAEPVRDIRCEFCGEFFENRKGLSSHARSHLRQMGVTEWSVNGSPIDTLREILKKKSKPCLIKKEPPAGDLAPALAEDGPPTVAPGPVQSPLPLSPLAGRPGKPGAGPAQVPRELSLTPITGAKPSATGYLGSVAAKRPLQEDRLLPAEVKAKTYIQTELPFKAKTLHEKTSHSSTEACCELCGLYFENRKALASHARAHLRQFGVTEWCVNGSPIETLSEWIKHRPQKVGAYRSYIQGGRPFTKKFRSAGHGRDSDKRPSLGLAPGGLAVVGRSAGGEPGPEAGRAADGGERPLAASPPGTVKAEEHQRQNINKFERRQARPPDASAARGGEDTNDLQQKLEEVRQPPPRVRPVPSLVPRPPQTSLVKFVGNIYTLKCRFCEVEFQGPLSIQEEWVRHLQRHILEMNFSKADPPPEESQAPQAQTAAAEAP
T1 sequence (Q96SW2 whole entry, the tested form may be a part): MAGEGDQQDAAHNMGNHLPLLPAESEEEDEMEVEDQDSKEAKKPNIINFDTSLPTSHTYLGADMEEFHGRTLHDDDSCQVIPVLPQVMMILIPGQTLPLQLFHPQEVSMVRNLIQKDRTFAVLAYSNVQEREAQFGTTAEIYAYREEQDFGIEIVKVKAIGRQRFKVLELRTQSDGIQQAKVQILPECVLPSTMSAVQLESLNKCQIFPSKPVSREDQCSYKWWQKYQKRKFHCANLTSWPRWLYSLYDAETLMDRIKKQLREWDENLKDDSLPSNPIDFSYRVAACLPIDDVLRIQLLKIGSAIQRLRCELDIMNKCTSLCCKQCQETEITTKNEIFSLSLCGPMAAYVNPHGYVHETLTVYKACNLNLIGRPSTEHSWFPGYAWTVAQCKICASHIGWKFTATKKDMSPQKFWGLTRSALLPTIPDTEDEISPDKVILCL
T1 sequence (Q16531 whole entry partner, the tested form may be a part): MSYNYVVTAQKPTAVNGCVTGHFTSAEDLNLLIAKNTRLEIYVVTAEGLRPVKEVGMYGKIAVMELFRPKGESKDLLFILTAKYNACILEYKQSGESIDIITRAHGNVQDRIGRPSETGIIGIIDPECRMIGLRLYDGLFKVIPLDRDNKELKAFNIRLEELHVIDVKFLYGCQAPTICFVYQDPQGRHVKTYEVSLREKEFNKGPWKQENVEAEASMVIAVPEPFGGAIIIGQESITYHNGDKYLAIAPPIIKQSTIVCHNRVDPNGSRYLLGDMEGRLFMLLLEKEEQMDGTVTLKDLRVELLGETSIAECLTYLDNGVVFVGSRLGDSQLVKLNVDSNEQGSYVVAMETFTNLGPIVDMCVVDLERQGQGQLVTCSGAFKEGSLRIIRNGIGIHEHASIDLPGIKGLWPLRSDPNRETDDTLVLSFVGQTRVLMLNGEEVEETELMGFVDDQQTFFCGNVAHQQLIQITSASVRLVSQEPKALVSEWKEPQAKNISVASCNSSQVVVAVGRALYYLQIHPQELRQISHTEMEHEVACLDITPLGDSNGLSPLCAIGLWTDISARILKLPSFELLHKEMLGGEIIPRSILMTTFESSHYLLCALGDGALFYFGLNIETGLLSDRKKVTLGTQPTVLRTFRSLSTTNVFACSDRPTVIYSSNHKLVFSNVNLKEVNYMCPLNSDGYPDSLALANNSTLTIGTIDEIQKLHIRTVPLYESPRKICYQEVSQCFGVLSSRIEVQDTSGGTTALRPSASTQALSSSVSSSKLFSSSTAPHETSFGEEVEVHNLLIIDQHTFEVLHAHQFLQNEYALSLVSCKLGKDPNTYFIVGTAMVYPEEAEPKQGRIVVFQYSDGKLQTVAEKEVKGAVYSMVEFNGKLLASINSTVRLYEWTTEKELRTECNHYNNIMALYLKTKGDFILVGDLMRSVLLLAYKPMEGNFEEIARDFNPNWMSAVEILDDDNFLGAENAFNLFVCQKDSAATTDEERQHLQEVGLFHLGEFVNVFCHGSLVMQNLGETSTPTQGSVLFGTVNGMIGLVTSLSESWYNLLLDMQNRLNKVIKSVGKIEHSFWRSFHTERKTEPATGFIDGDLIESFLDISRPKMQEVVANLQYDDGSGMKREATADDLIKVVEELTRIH

| Dmax at 25 µM [1] | remaining activity at 25 µM (HEK-293T, read-out: WIZ Amax) | DC50 | SMILES | Dmax [1] | remaining activity (HEK-293T, read-out: WIZ Amax) |
| --- | --- | --- | --- | --- | --- |
| 81% | 19% | 78 nM | CO[C@H]1CC[C@@H](CN2CCN(Cc3ccn4ncc(N5CCC(=O)NC5=O)c4c3)CC2)CC1 [Example 180, 1-(5-((4-(((1s,4s)-4-methoxycyclohexyl)methyl)piperazin-1-yl)methyl)pyrazolo[1,5-a]pyridin-3-yl)dihydropyrimidine-2,4(1H,3H)-dione] | – | – |
| 74% | 26% | 150 nM | O=C1CCN(c2cnn3ccc(CC4CCN(S(=O)(=O)c5ccccc5)CC4)cc23)C(=O)N1 [Example 91] | – | – |
| 0% | 100% | > 25000 nM | CC(C)CN1CCN(Cc2ccn3ncc(N4CCC(=O)NC4=O)c3c2)C(=O)C1 [Example 254, 1-(5-((4-isobutyl-2-oxopiperazin-1-yl)methyl)pyrazolo[1,5-a]pyridin-3-yl)dihydropyrimidine-2,4(1H,3H)-dione] | – | – |
| 64% | 36% | 44 nM | O=C1CCN(c2cnn3ccc(CC4CCN(Cc5ccc(C(F)(F)F)nc5)CC4)cc23)C(=O)N1 [Example 54, 1-(5-((1-((6-(trifluoromethyl)pyridin-3-yl)methyl)piperidin-4-yl)methyl)pyrazolo[1,5-a]pyridin-3-yl)dihydropyrimidine-2,4(1H,3H)-dione] | – | – |
| 69% | 31% | 157 nM | Cc1ccc(CN2CCC(Cc3ccn4ncc(N5CCC(=O)NC5=O)c4c3)CC2)cc1 [Example 47, 1-(5-((1-(4-methylbenzyl)piperidin-4-yl)methyl)pyrazolo[1,5-a]pyridin-3-yl)dihydropyrimidine-2,4(1H,3H)-dione] | – | – |
| 80% | 20% | 27 nM | CCC(C)S(=O)(=O)N1CCC(Cc2ccn3ncc(N4CCC(=O)NC4=O)c3c2)CC1 (stereo not drawn) [Example 86] | – | – |
| 19% | 81% | 754 nM | CC(C)S(=O)(=O)N1C[C@@H]2C[C@H]1CN2Cc1ccn2ncc(N3CCC(=O)NC3=O)c2c1 [Example 238, 1-(5-(((1S,4S)-5-(isopropylsulfonyl)-2,5-diazabicyclo[2.2.1]heptan-2-yl)methyl)pyrazolo[1,5-a]pyridin-3-yl)dihydropyrimidine-2,4(1H,3H)-dione] | – | – |
| 82% | 18% | 47 nM | C[C@H]1CN(Cc2ccn3ncc(N4CCC(=O)NC4=O)c3c2)CCN1CC1CC2(COC2)C1 [Example 325, (S)-1-(5-((4-((2-oxaspiro[3.3]heptan-6-yl)methyl)-3-methylpiperazin-1-yl)methyl)pyrazolo[1,5-a]pyridin-3-yl)dihydropyrimidine-2,4(1H,3H)-dione] | – | – |
| 15% | 85% | 1370 nM | CC(C)CN1CCN(Cc2ccn3ncc(N4CCC(=O)NC4=O)c3c2)C[C@@H]1C(F)F [Example 247, (R)-1-(5-((3-(difluoromethyl)-4-isobutylpiperazin-1-yl)methyl)pyrazolo[1,5-a]pyridin-3-yl)dihydropyrimidine-2,4(1H,3H)-dione] | – | – |
| 68% | 32% | 87 nM | C=C(C)CN1CCC(Cc2ccn3ncc(N4CCC(=O)NC4=O)c3c2)CC1 [Example 39a, 1-(5-((1-(2-methylallyl)piperidin-4-yl)methyl)pyrazolo[1,5-a]pyridin-3-yl)dihydropyrimidine-2,4(1H,3H)-dione] | – | – |
| 75% | 25% | 105 nM | O=C1CCN(c2cnn3ccc(CC4CCN(Cc5ccncc5)CC4)cc23)C(=O)N1 [Example 28, 1-(5-((1-(pyridin-4-ylmethyl)piperidin-4-yl)methyl)pyrazolo[1,5-a]pyridin-3-yl)dihydropyrimidine-2,4(1H,3H)-dione] | – | – |
| 82% | 18% | 183 nM | C[C@H]1C[C@H](Cc2ccn3ncc(-n4ccc(=O)[nH]c4=O)c3c2)CCN1C(=O)C1CC1 [Example 355, 1-(5-(((2S,4R)-1-(cyclopropanecarbonyl)-2-methylpiperidin-4-yl)methyl)pyrazolo[1,5-a]pyridin-3-yl)pyrimidine-2,4(1H,3H)-dione] | – | – |
| 50% | 50% | > 25000 nM | O=C1CCN(c2cnn3ccc(CC4CCN(CC(CO)CO)CC4)cc23)C(=O)N1 [Example 121, 1-(5-((1-(3-hydroxy-2-(hydroxymethyl)propyl)piperidin-4-yl)methyl)pyrazolo[1,5-a]pyridin-3-yl)dihydropyrimidine-2,4(1H,3H)-dione] | – | – |
| 42% | 58% | > 25000 nM | O=C1CCN(c2cnn3ccc(CC4CCN(C(=O)OC5CCCCC5)CC4)cc23)C(=O)N1 [Example 96] | – | – |
| 68% | 32% | 796 nM | O=C1CCN(c2cnn3ccc(CN4CCN5CCC[C@H]5C4)cc23)C(=O)N1 [Example 260, (S)-1-(5-((hexahydropyrrolo[1,2-a]pyrazin-2(1H)-yl)methyl)pyrazolo[1,5-a]pyridin-3-yl)dihydropyrimidine-2,4(1H,3H)-dione] | – | – |
| 80% | 20% | 201 nM | O=C1CCN(c2cnn3ccc(CC4CCN(CC(F)(F)F)CC4)cc23)C(=O)N1 [Example 30, 1-(5-((1-(2,2,2-trifluoroethyl)piperidin-4-yl)methyl)pyrazolo[1,5-a]pyridin-3-yl)dihydropyrimidine-2,4(1H,3H)-dione] | – | – |
| 76% | 24% | 46 nM | O=C1CCN(c2cnn3ccc(CC4CCN(Cc5cccc(OC(F)(F)F)c5)CC4)cc23)C(=O)N1 [Example 27, 1-(5-((1-(3-(trifluoromethoxy)benzyl)piperidin-4-yl)methyl)pyrazolo[1,5-a]pyridin-3-yl)dihydropyrimidine-2,4(1H,3H)-dione] | – | – |
| 84% | 16% | 31 nM | CCC(C)CN1CCC(Cc2ccn3ncc(N4CCC(=O)NC4=O)c3c2)CC1 (stereo not drawn) [Example 9, 1-(5-((1-(2-methylbutyl)piperidin-4-yl)methyl)pyrazolo[1,5-a]pyridin-3-yl)dihydropyrimidine-2,4(1H,3H)-dione] | – | – |
| 85% | 15% | 2 nM | C[C@H]1C[C@H](Cc2ccn3ncc(N4CCC(=O)NC4=O)c3c2)CCN1C[C@H]1CC[C@H](C(F)(F)F)CC1 [Example 305, 1-(5-(((2S,4R)-2-methyl-1-(((1r,4S)-4-(trifluoromethyl)cyclohexyl)methyl)piperidin-4-yl)methyl)pyrazolo[1,5-a]pyridin-3-yl)dihydropyrimidine-2,4(1H,3H)-dione] | – | – |

| SMILES | Dmax at 25 µM [1] | remaining activity at 25 µM (HEK-293T, read-out: WIZ Amax) | DC50 | Dmax [1] | remaining activity (HEK-293T, read-out: WIZ Amax) |
| --- | --- | --- | --- | --- | --- |
| C[C@H]1C[C@H](Cc2ccn3ncc(N4CCC(=O)NC4=O)c3c2)CCN1CC(F)(F)C(F)F [Example 273, 1-(5-(((2S,4R)-2-methyl-1-(2,2,3,3-tetrafluoropropyl)piperidin-4-yl)methyl)pyrazolo[1,5-a]pyridin-3-yl)dihydropyrimidine-2,4(1H,3H)-dione] | – | – | 40 nM | 78% | 22% |
